Reference: article PMC3510080, “Identification of Compounds with Anti-Proliferative Activity against Trypanosoma brucei brucei Strain 427 by a Whole Cell Viability Based HTS Campaign” (PLoS Neglected Tropical Diseases, 2012)
“And” between values parts separate entries of the source, which are not always exact repeats. Equal entries are not always repeated. Where two headings read alike, the source gives them in different places.

Legend:
T.b. rhodesiense STIB900 = assay: T. b. rhodesiense STIB900 assay (resazurin); SI versus L6 cells; type: cell-based, Trypanosoma brucei rhodesiense; details: for IC50: T.b. rhodesiense STIB900, 70 h, read-out: Compound activity T.R (IC50); for Selectivity Index T.R: relative to L6 cells
Experimental: (§1) L6 rat skeletal myoblasts, [29] were purchased from the American Type Culture Collection (ATCC, Rockville, MD, USA; ATCC number CRL 1458). This cell line was used for cytotoxicity testing to calculate an SI against T.b. rhodesiense and screened alongside the T.b. rhodesiense, P. falciparum, T. cruzi and L. donovani assays. L6 were also the host cells for the T. cruzi assay. Assays were performed in 96-well microtiter plates, each well containing 100 µl of RPMI 1640 medium supplemented with 1% L-glutamine (200 mM), 10% FCS, and 4000 L6 cells. Serial drug dilutions of eleven 3-fold dilution steps covering a range from 100 to 0.002 µg/ml were prepared. After 70 hours of incubation the plates were inspected under an inverted microscope to assure growth of the controls and sterile conditions. Ten µl of resazurin solution (resazurin, 12.5 mg in 100 ml double-distilled water) was then added to each well and the plates incubated for another 2 hours. Then the plates were read with a Spectramax Gemini XS microplate fluorometer (Molecular Devices Cooperation, Sunnyvale, CA, USA) using an excitation wavelength of 536 nm and an emission wavelength of 588 nm. Data was analysed using the microplate reader software Softmax Pro (Molecular Devices, USA). Podophyllotoxin was used as a positive control in the assay.
T.b. rhodesiense STIB900 stock was isolated in 1982 from a human patient in Tanzania and after several mouse passages cloned and adapted to axenic culture conditions. Fifty microliters of Minimum Essential Medium (MEM) supplemented with 25 mM HEPES, 1 g/l additional glucose, 1% MEM non-essential amino acids (100×), 0.2 mM 2-mercaptoethanol, 1 mM Na-pyruvate and 15% heat inactivated horse serum was added to each well of a 96-well microtiter plate. Serial drug dilutions of eleven 3-fold dilution steps covering a range from 100 to 0.002 µg/ml were prepared. Four thousand bloodstream form cells of T.b. rhodesiense STIB 900 in 50 µl were added to each well and the plate incubated at 37°C under a 5% CO2 atmosphere for 70 hours. Ten microlitres of resazurin solution (resazurin, 12.5 mg in 100 ml double-distilled water) was then added to each well and incubation continued for a further 2–4 hours. Plates were then read with a Spectramax Gemini XS microplate fluorometer (Molecular Devices, USA) using an excitation wavelength of 536 nm and an emission wavelength of 588 nm. Data was analysed using the microplate reader software Softmax Pro (Molecular Devices, USA). The drug melarsoprol was a positive control against T.b. rhodesiense.

[1] = test system: T. cruzi Tulahuen strain C2C4; assay: T. cruzi Tulahuen strain C2C4 β-galactosidase assay; SI versus L6 cells; type: cell-based, Trypanosoma cruzi; details: for IC50: in L6 host cells, 96 h, read-out: Compound activity T.C (IC50); for Selectivity Index T.C: relative to L6 cells
Experimental: as §1
Rat skeletal myoblasts (L6 cells) were seeded in 96-well microtitre plates at 2000 cells/well in 100 µl RPMI 1640 medium with 10% FCS and 2 mM l-glutamine. After 24 hours the medium was removed and replaced by 100 µl per well containing 5000 trypomastigote forms of T. cruzi Tulahuen strain C2C4 containing the β-galactosidase (Lac Z) gene. After 48 hours the medium was removed from the wells and replaced by 100 µl fresh medium with or without a serial drug dilution of eleven 3-fold dilution steps covering a range from 100 to 0.002 µg/ml. After 96 hours of incubation the plates were inspected under an inverted microscope to assure growth of the controls and sterility. Then 50 µl of the substrate, containing chlorophenol red-β-D-galactopyranoside (CPRG) and Nonidet, was added to all wells. A colour reaction developed within 2–6 hours that could be read photometrically at 540 nm. Data were transferred into the graphic programme Softmax Pro (Molecular Devices, USA), which calculated IC50 values. The drug benznidazole was used as a positive standard in this assay.

T.b. brucei = assay: Time to kill assay (Presto Blue); type: cell-based, Trypanosoma brucei brucei; details: for IC50: Trypanosoma brucei
Experimental: The starting dose was 40 µM, and the IC50 values were determined from a 16 point dose-response curve. The assay conditions were the same as previously described for the Alamar Blue assay, except that 10 µL of a final 10% concentration of Presto Blue in HMI-9 medium was added as the indicator of viable cells, at various time points. At the first time point, following 20 hours of incubation with compounds, Presto Blue was added to the wells and incubation at 37°C continued. Plates were read every hour and returned to continue incubation at 37°C. This was performed to determine at which time point there was a reproducible signal (Z' of >0.5), using puromycin as a […].

mammalian cell lines = details: cited from earlier work
[2] = Trypanosoma cruzi, TULAHUEN, L6, 96 h
[3] = 29 hours after addition of compound, 2 experiments, read-out: Activity (IC50 value) 29 hours
[4] = 48 hours after addition of compound, read-out: Activity (IC50 value) 48 hours
[5] = read-out: Activity (IC50 value) 72 hours, 72 hours after addition of compound

Compound	IC50 (T.b. rhodesiense STIB900)	IC50 (T.b. rhodesiense STIB900; Trypanosoma brucei, L6, 70 h)	IC50 [1, 2]	Selectivity Index T.C [1]	Selectivity Index T.R (T.b. rhodesiense STIB900)	IC50 [1]	IC50 (T.b. brucei; [3])	IC50 (T.b. brucei; [4])	IC50 (T.b. brucei; [5])	exposure time at which stable/maximum IC50 value was reached (T.b. brucei)	activity reported for some mammalian cell lines (mammalian cell lines)
CCS(=O)(=O)N1CCCc2ccc(NS(=O)(=O)c3ccccc3F)cc21 [Compound 5]	14000 nM and 14400 nM	< 10000 nM	14800 ± 151 nM	1.47	–	–	–	–	–	–	–
Cc1cc(O)nc(-n2nc(C)cc2NC(=O)C2CCCC2)n1 [Compound 4]	4850 ± 2080 nM	4800 nM	15400 ± 4290 nM	0.0588	0.19 and 0.186	–	–	–	–	–	–
CCc1ccccc1N=C(NCCN1CCOCC1)NC(=O)c1ccccc1 [Compound 8]	875 ± 65 nM	880 nM	82000 nM	1.61	150	82100 ± 1690 nM	–	–	–	–	–
O=C(Nc1ccc(Cl)c(-c2nc3ncccc3o2)c1)c1ccco1 [Compound 7]	586 ± 73 nM	590 nM	230 ± 49.6 nM	–	–	–	178 ± 7 nM	142 ± 38.7 nM	220 ± 17.6 nM	–	–
O=C(NCCc1n[nH]c(-c2ccc(F)cc2)n1)c1cccc(F)c1 [Compound 2]	6770 ± 545 nM	6800 nM	19300 ± 90.5 nM	6.20	–	–	4840 ± 449 nM	3830 ± 873 nM	500 ± 43.1 nM	–	–
COc1ccc(C[C@H](N)C(=O)N[C@H]2[C@@H](O)[C@H](n3cnc4c(N(C)C)ncnc43)O[C@@H]2CO)cc1 [Puromycin, puromycin, reference compound]	–	–	–	–	–	–	152 ± 65.4 nM	58.1 ± 10.1 nM	68.6 ± 0.283 nM	48 h	–
N=C(N)c1ccc(OCCCCCOc2ccc(C(=N)N)cc2)cc1 [Pentamidine, pentamidine, reference compound]	–	–	–	–	–	–	9.13 ± 2.76 nM	3.41 ± 0.661 nM	4.66 ± 0.936 nM	48 h	low µM activity
CCOc1ccc(OCc2ccc(C(=O)N3CCCC(C)C3)cc2)cc1 (stereo not drawn) [Compound 3]	854 ± 332 nM	850 nM	19100 ± 5320 nM	2.56	60 and 58.5	–	–	–	–	–	–
CC(C)(C)C(=O)NCCc1csc(-c2cccc(F)c2)n1 [Compound 1]	1470 ± 390 nM	1500 nM	2300 nM	26.8	42 and 42.3	2320 ± 60.1 nM	898 ± 332 nM	691 ± 66.4 nM	1030 ± 18.4 nM	–	–
CCC(C)NC(=O)c1nc(-c2ccccc2)cnc1N (stereo not drawn) [Compound 6]	967 ± 450 nM	970 nM	19100 ± 5320 nM	0.933	18 and 18.4	–	3090 ± 1380 nM	177 ± 11 nM	111 ± 50.2 nM	48 h	–
